Several values for one entry are separate records, joined by “and”; a condition that tells them apart may be missing. Identical values can stand only once. Like-named read-outs stand apart in the source and are kept apart here.
What was measured:
[1] = Cell viability (cytotoxicity, MTT) using HepG2; format: cell-based, human; settings: human, HepG2 cells, 72 h, summary sheet, read-out: MTT (AC50) Conc at which 50% of maximum efficacy is reached
Summary of the method: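 Compounds were tested at 8 concentrations in triplicate on HepG2 cells plated 24 h beforehand, with 72 h exposure in 1% DMSO medium. MTT was loaded 1 h before the end, solubilized in DMSO and read at 570 nm. Minimum effective concentration is the lowest concentration exceeding the significance level, given dose-response or two consecutive points above it.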

[2] = system: FRS2 (Y436) phosphorylation; test: Immunoblotting, FRS2 phosphorylation; format: cell-based, human; settings: RT-112 cells
Method: (§1) Cells were serum starved o.n. and 10 µM compound or 1 µM (BGJ398) were added 3 h before stimulation with 100 ng/ml bFGF for 15 min. Cells were lysed in RIPA buffer containing protease inhibitor cocktail and lysates resolved by SDS-PAGE. Membranes were probed with primary antibodies against phospho-FRS2, FRS2, phospho-ERK1/2, ERK1/2, pAKT, AKT and tubulin. Integrated density of immuno-reactive bands was quantified using Adobe Photoshop CS3. Integrated densities of phospho bands relative to non-phospho bands of same protein were calculated and plotted as fold-change relative to untreated control conditions. Compounds and BGJ398 were added in DMSO and corresponding DMSO concentrations were used in control samples.

ERK (pT202/Y204) = test: Immunoblotting, ERK phosphorylation; format: cell-based, human; settings: DAOY, SW780, M059K, SKOV3, AGS, DMS114 and RT-112 cells; 10 µM compound or 1 µM BGJ398
Method: as §1

[3] = In vivo bioavailability / PK after 1 mg/kg IV or 10 mg/kg PO; parameters: species or system Male ICR mice; settings: for Vd: read-out: Vss; for C0: read-out: C0 after IV administration; for Cmax: read-out: Cmax (oral bioavailability) after PO administration
Method: In vivo bioavailability studies were performed by Pharmacology Discovery Services Taiwan, Ltd., (New Taipei City, Taiwan). Male ICR mice weighing 20—30 g were provided by BioLasco Taiwan (under Charles River Laboratories Licensee). Animals were acclimated for 3 days prior to use and were confirmed with good health. All animals were maintained in a hygienic environment with controlled temperature (20—24 °C), humidity (30%—70%) and 12 h light/dark cycles. Free access to sterilized standard lab diet [MFG (Oriental Yeast Co., Ltd., Japan)] and autoclaved tap water. A pharmacokinetic (PK) study was performed in male ICR mice following intravenous (IV) and oral (PO) administration of compound 7 and E12 and IV administration of the test compound 3.14. The three test compounds (7, E12 and 3.14) were formulated in 1% dimethyl sulfoxide (DMSO)/10% Solutol® HS-15/ phosphate buffered saline (PBS) at 0.2 mg/mL and 1 mg/mL for IV and PO administration, respectively. The dosing volumes were 5 ml/kg for IV and 10 ml/kg for PO. The dose was 1 mg/kg for IV and 10 mg/kg for PO routes.

[4] = Solubility at the concentration required for the biophysical assays; format: physicochemical; settings: 5% DMSO
[5] = male, ICR, mouse, plasma, iv, 1 mg/kg, IV, read-out: AUClast
[6] = male, ICR, mouse, plasma, iv, 1 mg/kg, mice, 1 mg/kg IV, read-out: AUClast after IV administration
[7] = male, ICR, mouse, plasma, po, 10 mg/kg, mice, 10 mg/kg PO, read-out: AUClast after PO administration
[8] = male, ICR, mouse, plasma, 1 mg/kg, IV
[9] = male, ICR, mouse, plasma, 10 mg/kg, PO
[10] = male, ICR, mouse, mice, 1 mg/kg IV, plasma
[11] = male, ICR, mouse, mice, 10 mg/kg PO, plasma
[12] = 10 mg/kg PO, time 0.167 h, mouse#1-3
[13] = 10 mg/kg PO, time 0.5 h, mouse#1-3
[14] = 10 mg/kg PO, time 1 h, mouse#1-3
[15] = 10 mg/kg PO, time 2 h, mouse#1-3
[16] = 10 mg/kg PO, time 4 h, mouse#1-3
[17] = 10 mg/kg PO, time 6 h, mouse#1-3
[18] = 10 mg/kg PO, time 8 h, mouse#1-3
[19] = 10 mg/kg PO, time 24 h, mouse#1-3
[20] = mg/kg IV, time 0.167 h, mouse#1-3
[21] = mg/kg IV, time 0.5 h, mouse#1-3

## COc1ncc(C(C)NC2CC(C)(C)NC(C)(C)C2)cc1Cl (stereo not drawn) [Compound 3.3]
[1]
  AC50 at 72 h: > 100 µM

## O=[N+]([O-])c1c(Cl)cc(O)c2c1C1C=CCC1C(c1ccc(Cl)cc1)N2 (stereo not drawn) [Compound 7]
[2]
  basal and bFGF-induced phosphorylation of FRS2Y436 (result in words): reduced basal and bFGF-induced phosphorylation
ERK (pT202/Y204)
  basal and bFGF-induced phosphorylation of ERK (result in words): inhibited basal and bFGF-induced phosphorylation
[1]
  AC50 at 72 h: 7.02 µM
[3]; 1 mg/kg, IV
  AUC Extr (%): 1.2%
[3]; 10 mg/kg, PO
  AUC Extr (%): 18.1%
  AUC/D: 407 kg·ng·h/mL/mg
  AUClast (H*ng/ml): 3333 H*ng/ml
[3]; [5]
  AUC(0-t): 393 ng·h/mL
[3]; [6]
  AUC(0-t): 398 ng·h/mL
[3]; [7]
  AUC(0-t): 3330 ng·h/mL
[3]; [8]
  AUC(0-inf): 398 ng·h/mL
  MRT: 17.4 min
  clearance: 42 mL/min/kg
  half-life: 68.4 min
  Vd: 0.7 L/kg
[3]; [9]
  AUC(0-inf): 4070 ng·h/mL
  MRT: 283 min
  Tmax: 30 min
  bioavailability: 85%
  half-life: 230 min
[3]; [10]
  C0: 2870 ng/mL
[3]; [11]
  Cmax: 1400 ng/mL
[3]; mice, 1 mg/kg IV
  CL1/2 after IV administration: 1.14 h
[3]; mice, 10 mg/kg PO
  CL1/2 after PO administration: 3.83 h
[4]
  solubility for biophysical assays (result in words): soluble in 5% DMSO

## O=[N+]([O-])c1c(Cl)cc(O)c2c1C1C=CCC1C(c1ccc(Cl)cc1Cl)N2 (stereo not drawn) [Compound 8]
[1]
  AC50 at 72 h: 12.4 µM
[4]
  solubility for biophysical assays (result in words): soluble in 5% DMSO

## N#Cc1c(Cl)cc(O)c2c1C1C=CCC1C(c1ccc(Cl)cc1)N2 (stereo not drawn) [Compound 14]
[2]
  basal and bFGF-induced phosphorylation of FRS2Y436 (result in words): reduced basal and bFGF-induced phosphorylation
ERK (pT202/Y204)
  basal and bFGF-induced phosphorylation of ERK (result in words): inhibited basal and bFGF-induced phosphorylation
[1]
  AC50 at 72 h: 5.24 µM

## Cc1[nH]nc(-c2ccc(O)c(C)c2O)c1-c1nc2ccccc2s1 [Compound E12]
[1]
  AC50 at 72 h: 23.7 µM
[3]; 1 mg/kg, IV
  AUC Extr (%): 0.5%
[3]; [12]
  in vivo PK raw, level per mouse: 13 and 10 and 15
  in vivo PK raw, level per mouse (µM): 0.02964 µM and 0.04446 µM
[3]; [13]
  in vivo PK raw, level per mouse: 16 and 11 and 3
  in vivo PK raw, level per mouse (µM): 0.04742 µM and 0.0326 µM and 0.008892 µM
[3]; [14]
  in vivo PK raw, level per mouse: 1 and 2 and 10
  in vivo PK raw, level per mouse (µM): 0.002964 µM and 0.005928 µM and 0.02964 µM
[3]; [15]
  in vivo PK raw, level per mouse: 3 and 0 and 2
  in vivo PK raw, level per mouse (µM): 0.008892 µM and 0 µM and 0.005928 µM
[3]; [16]
  in vivo PK raw, level per mouse: 5 and 2 (2×)
  in vivo PK raw, level per mouse (µM): 0.01482 µM and 0.005928 µM (2×)
[3]; [17]
  in vivo PK raw, level per mouse: 0 (2×) and 2
  in vivo PK raw, level per mouse (µM): 0 µM (2×) and 0.005928 µM
[3]; [18]
  in vivo PK raw, level per mouse: 1
  in vivo PK raw, level per mouse (µM): 0.002964 µM
[3]; [19]
  in vivo PK raw, level per mouse: 0
  in vivo PK raw, level per mouse (µM): 0 µM
[3]; 10 mg/kg, PO
  AUC Extr (%): 14.8%
  AUC/D: 3 kg·ng·h/mL/mg
  AUClast (H*ng/ml): 22 H*ng/ml
[3]; [5]
  AUC(0-t): 85 ng·h/mL
[3]; male, ICR, mouse, plasma, iv, 1 mg/kg, mg/kg IV, time 0.167 h, mouse#1-3, read-out: in vivo PK raw, level per mouse
  concentration at 0.167 h: 1360 nM
[3]; male, ICR, mouse, plasma, iv, 1 mg/kg, mg/kg IV, time 0.5 h, mouse#1-3, read-out: in vivo PK raw, level per mouse
  concentration at 0.5 h: 305 nM
[3]; male, ICR, mouse, plasma, iv, 1 mg/kg, mg/kg IV, time 1 h, mouse#1-3, read-out: in vivo PK raw, level per mouse
  concentration at 1 h: 29.6 nM
[3]; male, ICR, mouse, plasma, iv, 1 mg/kg, mg/kg IV, time 2 h, mouse#1-3, read-out: in vivo PK raw, level per mouse
  concentration at 2 h: 5.93 nM
[3]; male, ICR, mouse, plasma, iv, 1 mg/kg, mg/kg IV, time 4 h, mouse#1-3, read-out: in vivo PK raw, level per mouse
  concentration at 4 h: 0 nM
[3]; male, ICR, mouse, plasma, iv, 1 mg/kg, mg/kg IV, time 6 h, mouse#1-3, read-out: in vivo PK raw, level per mouse
  concentration at 6 h: 0 nM
[3]; male, ICR, mouse, plasma, iv, 1 mg/kg, mg/kg IV, time 8 h, mouse#1-3, read-out: in vivo PK raw, level per mouse
  concentration at 8 h: 0 nM
[3]; male, ICR, mouse, plasma, iv, 1 mg/kg, mg/kg IV, time 24 h, mouse#1-3, read-out: in vivo PK raw, level per mouse
  concentration at 24 h: 0 nM
[3]; [6]
  AUC(0-t): 85 ng·h/mL
[3]; male, ICR, mouse, plasma, oral, 10 mg/kg, 10 mg/kg PO, time 0.167 h, mouse#1-3, read-out: in vivo PK raw, level per mouse
  concentration at 0.167 h: 38.5 nM
[3]; male, ICR, mouse, plasma, oral, 10 mg/kg, 10 mg/kg PO, time 8 h, mouse#1-3, read-out: in vivo PK raw, level per mouse
  concentration at 8 h: 2.96 nM
[3]; male, ICR, mouse, plasma, oral, 10 mg/kg, 10 mg/kg PO, time 24 h, mouse#1-3, read-out: in vivo PK raw, level per mouse
  concentration at 24 h: 0 nM
[3]; [7]
  AUC(0-t): 22 ng·h/mL
[3]; [8]
  AUC(0-inf): 86 ng·h/mL
  MRT: 6.6 min
  clearance: 195 mL/min/kg
  half-life: 9 min
  Vd: 1.3 L/kg
[3]; [9]
  AUC(0-inf): 26 ng·h/mL
  MRT: 233 min
  Tmax: 10.2 min
  bioavailability: 3%
  half-life: 163 min
[3]; [10]
  C0: 762 ng/mL
[3]; [11]
  Cmax: 13 ng/mL
[3]; [20]
  in vivo PK raw, level per mouse: 459 and 369 and 455
  in vivo PK raw, level per mouse (µM): 1.094 µM and 1.349 µM
[3]; [21]
  in vivo PK raw, level per mouse: 103 and 104 and 127
  in vivo PK raw, level per mouse (µM): 0.3082 µM and 0.3764 µM
[3]; mg/kg IV, time 1 h, mouse#1-3
  in vivo PK raw, level per mouse: 10 and 13 and 14
  in vivo PK raw, level per mouse (µM): 0.03853 µM and 0.04149 µM
[3]; mg/kg IV, time 2 h, mouse#1-3
  in vivo PK raw, level per mouse: 2
  in vivo PK raw, level per mouse (µM): 0.005928 µM
[3]; mg/kg IV, time 4 h, mouse#1-3
  in vivo PK raw, level per mouse: 0
  in vivo PK raw, level per mouse (µM): 0 µM
[3]; mg/kg IV, time 6 h, mouse#1-3
  in vivo PK raw, level per mouse: 0
  in vivo PK raw, level per mouse (µM): 0 µM
[3]; mg/kg IV, time 8 h, mouse#1-3
  in vivo PK raw, level per mouse: 0
  in vivo PK raw, level per mouse (µM): 0 µM
[3]; mg/kg IV, time 24 h, mouse#1-3
  in vivo PK raw, level per mouse: 0
  in vivo PK raw, level per mouse (µM): 0 µM
[3]; mice, 1 mg/kg IV
  CL1/2 after IV administration: 0.15 h
[3]; mice, 10 mg/kg PO
  CL1/2 after PO administration: 2.71 h
